From US20150018237A1, “MEANS AND METHODS FOR ASSESSING BONE DISORDERS” (BASF SE, priority 2012, published 2015)
Read-outs that look alike come from different tables or passages of the source. Marks after values point to notes of the source that are not given here.

Assays:
rats [1] = assay: Plasma metabolite profiling (GC-MS, LC-MS) in rats dosed once daily over 28 days, treatment ratios versus control
Method: (§1) A group of each 5 male and female rats was dosed once daily with the indicated compounds (see Table 10, below for compounds, applied doses and administeration details) over 28 days.
(§2) Each dose group in the studies consisted of five rats per sex. Additional groups of each 5 male and female animals served as controls. Before starting the treatment period, animals, which were 62-64 days old when supplied, were acclimatized to the housing and environmental conditions for 7 days. All animals of the animal population were kept under the same constant temperature (20-24±3° C.) and the same constant humidity (30-70%). The animals of the animal population were fed ad libitum. The food to be used was essentially free of chemical or microbial contaminants. Drinking water was also offered ad libitum. Accordingly, the water was free of chemical and microbial contaminants as laid down in the European Drinking Water Directive 98/83/EG. The illumination period was 12 hours light followed by 12 hours darkness (12 hours light, from 6:00 to 18:00, and 12 hours darkness, from 18:00 to 6:00). The studies were performed in an AAALAC-approved laboratory in accordance with the German Animal Welfare Act and the European Council Directive 86/609/EE. The test system was arranged according to the OECD 407 guideline for the testing of chemicals for repeated dose 28-day oral toxicity study in rodents.
(§3) In the morning of day 7, 14, and 28, blood was taken from the retroorbital venous plexus from fasted anaesthetized animals. From each animal, 1 ml of blood was collected with EDTA as anticoagulant. The samples were centrifuged for generation of plasma. All plasma samples were covered with a N2 atmosphere and then stored at −80° C. until analysis.
(§4) For mass spectrometry-based metabolite profiling analyses plasma samples were extracted and a polar and a non-polar (lipid) fraction was obtained. For GC-MS analysis, the non-polar fraction was treated with methanol under acidic conditions to yield the fatty acid methyl esters. Both fractions were further derivatised with O-methyl-hydroxyamine hydrochloride and pyridine to convert Oxo-groups to O-methyloximes and subsequently with a silylating agent before analysis. In LC-MS analysis, both fractions were reconstituted in appropriate solvent mixtures. HPLC was performed by gradient elution on reversed phase separation columns. Mass spectrometric detection which allows target and high sensitivity MRM (Multiple Reaction Monitoring) profiling in parallel to a full screen analysis was applied as described in WO2003073464.
(§5) Steroids and their metabolites were measured by online SPE-LC-MS (Solid phase extraction-LC-MS).
(§6) Following comprehensive analytical validation steps, the data for each analyte were normalized against data from pool samples. These samples were run in parallel through the whole process to account for process variability. The significance of treatment group values specific for sex, treatment duration and metabolite was determined by comparing means of the treated groups to the means of the respective untreated control groups using WELCH-test and quantified with treatment ratios versus control and p-values.

rats [2] = settings: rat, in vivo
Method: as §1, §2, §3, §4, §5, §6

[3] = female rats, day 28, high dose, Table 1a up-regulation
[4] = female rats, day 28, high dose, Table 1b down-regulation
[5] = male rats, day 28, high dose, Table 1c up-regulation
[6] = male rats, day 28, high dose, Table 1d down-regulation

Calcitonin (Salmon)
3-Hydroxybutyrate, plasma, ratio versus control (rats [1]; [3]): 1.32* | Coenzyme Q10, plasma, ratio versus control (rats [1]; [3]): 1.03* | Eicosaenoic acid (C20:1) No 02, plasma, ratio versus control (rats [1]; [3]): 3.35* | Phosphate (inorganic and organic phosphates), plasma, ratio versus control (rats [1]; [3]): 1.31* | Phosphatidylcholine (C18:0, C20:4), plasma, ratio versus control (rats [1]; [3]): 1.05* | Sphingomyelin (d18:2, C16:0), plasma, ratio versus control (rats [1]; [3]): 1.11* | Urea, plasma, ratio versus control (rats [1]; [3]): 1.36* | myo-Inositol-2-phosphate, plasma, ratio versus control (rats [1]; [3]): 1.27* | 4-Hydroxyphenylpyruvate, plasma, ratio versus control (rats [1]; [4]): 0.63* | 18-Hydroxy-11-deoxycorticosterone, plasma, ratio versus control (rats [1]; [4]): 0.85* | Alanine, plasma, ratio versus control (rats [1]; [4]): 0.75* | Creatine, plasma, ratio versus control (rats [1]; [4]): 0.92* | Creatinine, plasma, ratio versus control (rats [1]; [4]): 0.58* | Glucose, plasma, ratio versus control (rats [1]; [4]): 0.95* | Lysophosphatidylcholine (C17:0), plasma, ratio versus control (rats [1]; [4]): 0.91* | Methionine, plasma, ratio versus control (rats [1]; [4]): 0.85* | Phenylalanine, plasma, ratio versus control (rats [1]; [4]): 0.88* | Threonic acid, plasma, ratio versus control (rats [1]; [4]): 0.75* | Glycine, plasma, ratio versus control (rats [1]; [5]): 0.86 | Phosphate (inorganic and organic phosphates), plasma, ratio versus control (rats [1]; [5]): 1.35* | Phosphatidylcholine (C16:0, C16:0), plasma, ratio versus control (rats [1]; [5]): 1.24* | myo-Inositol-2-phosphate, plasma, ratio versus control (rats [1]; [5]): 1.41* | 5-Oxoproline, plasma, ratio versus control (rats [1]; [6]): 0.94* | 16-Methylheptadecanoic acid, plasma, ratio versus control (rats [1]; [6]): 0.59* | 17-Methyloctadecanoic acid, plasma, ratio versus control (rats [1]; [6]): 0.65* | 18-Hydroxy-11-deoxycorticosterone, plasma, ratio versus control (rats [1]; [6]): 0.24* | Alanine, plasma, ratio versus control (rats [1]; [6]): 0.78* | Coenzyme Q9, plasma, ratio versus control (rats [1]; [6]): 0.83* | Coenzyme Q10, plasma, ratio versus control (rats [1]; [6]): 0.74* | DAG (C18:1, C18:2), plasma, ratio versus control (rats [1]; [6]): 0.63* | Glycerol, lipid fraction, plasma, ratio versus control (rats [1]; [6]): 0.86* | Glycine, plasma, ratio versus control (rats [1]; [6]): 0.86* | Heptadecanoic acid (C17:0), plasma, ratio versus control (rats [1]; [6]): 0.77* | Hippuric acid, plasma, ratio versus control (rats [1]; [6]): 0.48* | Lactate, plasma, ratio versus control (rats [1]; [6]): 0.7* | Linoleic acid (C18:cis[9, 12]2), plasma, ratio versus control (rats [1]; [6]): 0.82* | Linolenic acid (C18:cis[9, 12, 15]3), plasma, ratio versus control (rats [1]; [6]): 0.61* | Malate, plasma, ratio versus control (rats [1]; [6]): 0.8* | Methionine, plasma, ratio versus control (rats [1]; [6]): 0.88* | Pyruvate, plasma, ratio versus control (rats [1]; [6]): 0.76* | TAG (C18:1, C18:2), plasma, ratio versus control (rats [1]; [6]): 0.7* | TAG (C18:2, C18:2), plasma, ratio versus control (rats [1]; [6]): 0.6* | TAG (C18:2, C18:3), plasma, ratio versus control (rats [1]; [6]): 0.78* | TAG (DAG-Fragment), plasma, ratio versus control (rats [1]; [6]): 0.7* | TAG No 01, plasma, ratio versus control (rats [1]; [6]): 0.66* | TAG No 05, plasma, ratio versus control (rats [1]; [6]): 0.68* | TAG No 07, plasma, ratio versus control (rats [1]; [6]): 0.78* | TAG No 059, plasma, ratio versus control (rats [1]; [6]): 0.65* | gamma-Linolenic acid (C18:cis[6, 9, 12]3), plasma, ratio versus control (rats [1]; [6]): 0.98

[O-][Cl+3]([O-])([O-])O [Sodium perchlorate]
Isoleucine, plasma, ratio versus control (rats [1]; male rats, day 7, high dose, Table 2a up-regulation): 0.97 | Isoleucine, plasma, ratio versus control (rats [1]; male rats, day 28, high dose, Table 2a up-regulation): 1.37 * | Isoleucine, plasma, ratio versus control (rats [1]; male rats, day 28, high dose, Table 2c up-regulation): 1.37*

O=C([O-])[O-].[Ca+2] [Calcium carbonate]
3-Hydroxybutyrate, plasma, ratio versus control (rats [2]): 1.09* | 4-Hydroxyphenylpyruvate, plasma, ratio versus control (rats [2]): 0.23* | 5-Oxoproline, plasma, ratio versus control (rats [2]): 0.87* | 16-Methylheptadecanoic acid, plasma, ratio versus control (rats [2]): 0.66* | 17-Methyloctadecanoic acid, plasma, ratio versus control (rats [2]): 0.92* | Alanine, plasma, ratio versus control (rats [2]): 0.79* | Coenzyme Q9, plasma, ratio versus control (rats [2]): 0.72* | Creatine, plasma, ratio versus control (rats [2]): 0.48* | Creatinine, plasma, ratio versus control (rats [2]): 0.43* | DAG (C18:1, C18:2), plasma, ratio versus control (rats [2]): 0.87* | Eicosaenoic acid (C20:1) No 02, plasma, ratio versus control (rats [2]): 1.3* | Glucose, plasma, ratio versus control (rats [2]): 0.93* | Glycerol, lipid fraction, plasma, ratio versus control (rats [2]): 0.66* | Heptadecanoic acid (C17:0), plasma, ratio versus control (rats [2]): 0.76* | Hippuric acid, plasma, ratio versus control (rats [2]): 0.71* | Lactate, plasma, ratio versus control (rats [2]): 0.95* | Linoleic acid (C18:cis[9, 12]2), plasma, ratio versus control (rats [2]): 0.67* | Linolenic acid (C18:cis[9, 12, 15]3), plasma, ratio versus control (rats [2]): 0.81* | Lysophosphatidylcholine (C17:0), plasma, ratio versus control (rats [2]): 0.82* | Malate, plasma, ratio versus control (rats [2]): 0.54* | Phenylalanine, plasma, ratio versus control (rats [2]): 0.93* | Phosphatidylcholine (C16:0, C16:0), plasma, ratio versus control (rats [2]): 1.06* | Phosphatidylcholine (C18:0, C20:4), plasma, ratio versus control (rats [2]): 1.02* | Pyruvate, plasma, ratio versus control (rats [2]): 0.77* | Sphingomyelin (d18:2, C16:0), plasma, ratio versus control (rats [2]): 1.11* | TAG (C18:1, C18:2), plasma, ratio versus control (rats [2]): 0.75* | TAG (C18:2, C18:2), plasma, ratio versus control (rats [2]): 0.74* | TAG (C18:2, C18:3), plasma, ratio versus control (rats [2]): 0.64* | TAG (DAG-Fragment), plasma, ratio versus control (rats [2]): 0.72* | TAG No 01, plasma, ratio versus control (rats [2]): 0.55* | TAG No 05, plasma, ratio versus control (rats [2]): 0.71* | TAG No 07, plasma, ratio versus control (rats [2]): 0.71* | TAG No 059, plasma, ratio versus control (rats [2]): 0.68* | Threonic acid, plasma, ratio versus control (rats [2]): 0.86* | Urea, plasma, ratio versus control (rats [2]): 1.15* | gamma-Linolenic acid (C18:cis[6, 9, 12]3), plasma, ratio versus control (rats [2]): 0.7*
